Test results reported in patent US10294202B2, “Pyrrolidinones as herbicides” (FMC Corporation, priority 2013, dated 2019).

Tests used:
ryegrass, Italian = test: Test A pre-/postemergence herbicide test; assay type: in vivo, Lolium multiflorum
How it was run: (§1)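 Both application timings used compounds in a non-phytotoxic solvent plus surfactant. Pre-emergence: soil sprayed directly after seeding into loam/sand. Post-emergence: foliage of 2–10 cm seedlings (1–2 leaves) sprayed. Injury rated ~10 days later, 0–100.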

chickweed = test: Test C postemergence herbicide test; assay type: in vivo, Stellaria media
Excerpt: At the same time, plants selected from these crop and weed species and also barley (winter barley, Hordeum vulgare), […]), chickweed (common chickweed, Stellaria media), deadnettle (henbit deadnettle, Lamium amplexicaule), and canarygrass (littleseed canarygrass, Phalaris minor) were planted in pots containing Redi-Earth® planting medium (Scotts Company, 14111 Scottslawn Road, Marysville, Ohio 43041) comprising spaghnum peat moss, vermiculite, wetting agent and starter nutrients and treated with postemergence applications of test chemicals formulated in the same manner. Plants ranged in height from 2 to 18 cm (1- to 4-leaf stage) for postemergence treatments. Treated plants and controls were maintained in a greenhouse for 13 to 15 days, after which time all species were compared to controls and visually evaluated. Plant response ratings, summarized in Table C, are based on a scale of 0 to 100 where 0 is no effect and 100 is complete control. A dash (-) response means no test result.

ducksalad = test: Test C flooded paddy test; assay type: in vivo, Heteranthera limosa; conditions: Flood
How it was run: (§2)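 Plants at the 2-leaf stage in pots flooded to 3 cm were treated by applying compound directly to the paddy water, with depth held throughout. After 13 to 15 days in a greenhouse, response was rated visually against controls on a 0 (no effect) to 100 (complete control) scale.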

sedge, umbrella = test: Test C flooded paddy test; assay type: in vivo, Cyperus difformis; conditions: Flood
How it was run: as §2

ragweed = test: Test A pre-/postemergence herbicide test; assay type: in vivo, Ambrosia elatior
How it was run: as §1

kochia = test: Test A pre-/postemergence herbicide test; assay type: in vivo, Kochia scoparia
How it was run: as §1

galium = test: Test A postemergence herbicide test; assay type: in vivo, Galium aparine
How it was run: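 Plants at the one- to two-leaf stage, 2–10 cm tall, grown in loam/sand pots, received postemergence sprays of the test chemicals. After about 10 days in the greenhouse, injury was scored visually against untreated controls on a 0–100 scale (0 none, 100 complete control).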

[1] = 125 g ai/ha, visual rating, 0 to 100 scale, 0 no effect, 100 complete control, approximately 10 days, preemergence
[2] = Postemergence, 125 g ai/ha, 0 to 100 scale, 0 is no effect, 100 is complete control
[3] = preemergence, 500 g ai/ha, 0 to 100 scale, 0 is no effect and 100 is complete control
[4] = 31 g ai/ha, scale 0 to 100 (0 no effect, 100 complete control)
[5] = 62 g ai/ha, scale 0 (no effect) to 100 (complete control)
[6] = 125 g ai/ha, scale 0 to 100 (0 no effect, 100 complete control)
[7] = 250 g ai/ha, scale 0 to 100 (0 no effect, 100 complete control)
[8] = 125 g ai/ha, scale of 0 to 100 where 0 is no effect and 100 is complete control, 13 to 15 days
[9] = 250 g ai/ha, scale of 0 to 100 where 0 is no effect and 100 is complete control, 13 to 15 days
[10] = 125 g ai/ha, 0 to 100 scale, 0 is no effect, 100 is complete control
[11] = Postemergence, 125 g ai/ha, visual rating on 0 to 100 scale (0 no effect, 100 complete control), approx. 10 days
[12] = Postemergence, 500 g ai/ha, 0 to 100 scale (0 no effect, 100 complete control)
[13] = Preemergence, 125 g ai/ha, 0 to 100 scale where 0 is no effect and 100 is complete control
[14] = 62 g ai/ha, scale of 0 to 100 where 0 is no effect and 100 is complete control, 13 to 15 days
[15] = 500 g ai/ha, 0 to 100 scale (0 no effect, 100 complete control)
[16] = Preemergence, 500 g ai/ha, visual rating on 0 to 100 scale (0 no effect, 100 complete control)
[17] = 125 g ai/ha, visual rating on 0 to 100 scale (0 no effect, 100 complete control), approx. 10 days

Row | Compound | Plant response rating, Ryegrass, Italian (ryegrass, Italian; [3]) | Plant response rating, Chickweed (chickweed; [4]) | Plant response rating, Chickweed (chickweed; [5]) | Plant response rating, Chickweed (chickweed; [6]) | Plant response rating, Chickweed (chickweed; [7]) | Plant response rating, Ducksalad (ducksalad; [8]) | Plant response rating, Ducksalad (ducksalad; [9]) | Plant response rating, Ragweed (ragweed; [3]) | Plant response rating, Kochia (kochia; [2]) | Plant response rating, Kochia (kochia; [3]) | Plant response rating, Galium (galium; [10]) | Plant response rating, Ryegrass, Italian (ryegrass, Italian; [11]) | Plant response rating, Ryegrass, Italian (ryegrass, Italian; [12]) | Plant response rating, Ryegrass, Italian (ryegrass, Italian; [13]) | Plant response rating, Ragweed (ragweed; [11]) | Plant response rating, Ragweed (ragweed; [12]) | Plant response rating, Ragweed (ragweed; [13]) | Plant response rating, Kochia (kochia; [12]) | Plant response rating, Kochia (kochia; [13]) | Plant response rating, Galium (galium; [15]) | other results
1 | O=C1NCC(c2cccc(C(F)(F)F)c2)C1C(=O)Nc1ccc(F)cc1F (racemic) [Compound 207] | 40 | 30 | 50 | 60 | 90 | 60 | 75 | 20 | 0 | 30 | 0 | – | – | – | – | – | – | – | – | – | Plant response rating, Ryegrass, Italian (ryegrass, Italian; [1]): 20; Plant response rating, Ryegrass, Italian (ryegrass, Italian; [2]): 0; Ryegrass, Italian plant response rating (0 to 100 scale, 0 is no effect, 100 is complete control) (ryegrass, Italian; Postemergence, 500 g ai/ha): 50; Plant response rating, Ducksalad (ducksalad; 500 g ai/ha, scale 0 to 100): 100; Plant response rating, Ducksalad (ducksalad; 1000 g ai/ha, scale 0 to 100): 80; Plant response rating, Sedge, Umbrella (sedge, umbrella; [8]): 0; Plant response rating, Sedge, Umbrella (sedge, umbrella; [9]): 0; Plant response rating, Sedge, Umbrella (sedge, umbrella; 500 g ai/ha, scale 0 to 100): 0; Plant response rating, Sedge, Umbrella (sedge, umbrella; 1000 g ai/ha, scale 0 to 100): 0; Plant response rating, Ragweed (ragweed; [1]): 0; Plant response rating, Ragweed (ragweed; [2]): 0; Ragweed plant response rating (0 to 100 scale, 0 is no effect, 100 is complete control) (ragweed; Postemergence, 500 g ai/ha): 0; Plant response rating, Kochia (kochia; [1]): 20; Kochia plant response rating (0 to 100 scale, 0 is no effect, 100 is complete control) (kochia; Postemergence, 500 g ai/ha): 0; Galium plant response rating (0 to 100 scale, 0 is no effect, 100 is complete control) (galium; 500 g ai/ha): 50
2 | O=C1NCC(c2cccc(Cl)c2)C1C(=O)Nc1cccc(F)c1F (racemic) [Compound 275] | 60 | 50 | 60 | 85 | 85 | 100 | 100 | 40 | 50 | 80 | 60 | 30 | 50 | 30 | 30 | 30 | 20 | 80 | 60 | 70 | Plant response rating, Ducksalad (ducksalad; [14]): 85; Plant response rating, Ducksalad (ducksalad; 500 g ai/ha, scale 0 to 100): 100; Plant response rating, Sedge, Umbrella (sedge, umbrella; [14]): 0; Plant response rating, Sedge, Umbrella (sedge, umbrella; [8]): 0; Plant response rating, Sedge, Umbrella (sedge, umbrella; [9]): 0; Plant response rating, Sedge, Umbrella (sedge, umbrella; 500 g ai/ha, scale 0 to 100): 0
3 | O=C1NCC(c2cc(F)cc(F)c2)C1C(=O)Nc1ccc(F)cc1F (racemic) [Compound 278] | 0 | 0 | 0 | 0 | 0 | – | – | 0 | 0 | 0 | 40 | 0 | 0 | 0 | 0 | 0 | 0 | 0 | 0 | 50 | –
4 | O=C1NCC(c2cc(F)cc(F)c2)C1C(=O)Nc1cccc(F)c1F (racemic) [Compound 279] | 60 | 5 | 75 | 30 | 5 | – | – | 0 | 0 | 80 | 40 | 0 | 0 | 0 | 0 | 0 | 0 | 40 | 40 | 50 | –
5 | CN1CC(c2ccc(F)c(F)c2)C(C(=O)Nc2ccccc2F)C1=O (stereo not drawn) [Compound 302] | – | 0 | 0 | 5 | 70 | – | – | – | – | – | – | 0 | 60 | 0 | 0 | 0 | 0 | 60 | 50 | 60 | Ryegrass, Italian plant response rating (ryegrass, Italian; [16]): 60; Ragweed plant response rating (ragweed; [16]): 30; Plant response rating, Kochia (kochia; [11]): 10; Kochia plant response rating (kochia; [16]): 70; Plant response rating, Galium (galium; [17]): 60
6 | O=C1NCC(c2cccc(Br)c2)C1C(=O)Nc1cccc(F)c1F (stereo not drawn) [Compound 309] | – | 30 | 50 | 65 | 70 | – | – | – | – | – | – | 10 | 30 | 0 | 0 | 0 | 0 | 0 | 0 | 70 | Ryegrass, Italian plant response rating (ryegrass, Italian; [16]): 20; Plant response rating, Kochia (kochia; [11]): 0; Kochia plant response rating (kochia; [16]): 0; Plant response rating, Galium (galium; [17]): 60
